Laboratory results from PMC8848768, “Synthesis and evaluation of potent yaku'amide A analogs” (Chemical Science, 2022).
Where two headings read alike, the source gives them in different places. Square brackets hold non-standard residues; d marks the D form. Peptide text beside a SMILES is read from it. * marks the point of attachment. NH((S)-1-NMe2-3-Me-but-2-yl) = CC(C)[C@@H](CN(C)C)N*; dVal(3-OH) = CC(C)(O)[C@@H](N)C(=O)O; d(aIle) = CC[C@H](C)[C@@H](N)C(=O)O; Val(3-OH) = CC(C)(O)[C@H](N)C(=O)O; ΔVal = CC(C)=C(N)C(=O)O

How the values were obtained:
NCIH1048 = assay: cells; conditions: read-out: Aver IC50, NCIH1048
Method: (§1) The antiproliferative activity profiles of 1a, its full-length analogs 2a and 2b, and its partial structures (23, 24, 26, and 30) were determined by in vitro screening in 72 hours MTS cell proliferation assays against a panel of 18 different human cancer cell lines. […] The three peptides were also evaluated for their antiproliferative activity against the lung fibroblast MRC5 cell line.
(§2) Cells (40 µ L) are added into individual wells of a 384-well black/clear bottom plate on day zero at concentrations enabling continuous log growth over the course of the assay. On day one, compounds (or DMSO) are transferred using an ATS-liquid handler (100 nL per well) to individual wells containing cells and the cells are treated for 72 hours (37 °C, 5% CO 2) prior to measuring proliferation using MTS reagent following manufacturer’s instructions. Net OD values are determined by subtracting the average OD values of cells (measured on day 1, T = 0) from average total OD value of cells (measured on day 4, T = 72h). IC 50 values are calculated using proprietary software (IC 50 values normalized against all compounds). Results represent n>2 independent studies (in duplicate).
(§3) Table S1. Antiproliferative Data of Compounds 1a, 2a, 2b, 23, 24, 26, and 30.
(§4) Table S2. Human Cell Line Descriptions.
(§5) Human Cell Line* Description
(§6) *All cells were obtained from ATCC and are authenticated

OVCAR3 = assay: cells; conditions: read-out: Aver IC50, OVCAR3
Method: as §1, §2, §3, §4, §5, §6

BXPC3 = assay: cells; conditions: read-out: Aver IC50, BXPC3
Method: as §1, §2, §3, §4, §5, §6

SNUC1 = assay: cells; conditions: read-out: Aver IC50, SNUC1
Method: as §1, §2, §3, §4, §5, §6

THP1 = assay: cells; conditions: read-out: Aver IC50, THP1
Method: as §1, §2, §3, §4, §5, §6

HL60 = assay: cells; conditions: read-out: Aver IC50, HL60
Method: as §1, §2, §3, §4, §5, §6

CALU6 = assay: cells; conditions: read-out: Aver IC50, CALU6
Method: as §1, §2, §3, §4, §5, §6

PANC1005 = assay: cells; conditions: read-out: Aver IC50, PANC1005
Method: as §1, §2, §3, §4, §5, §6

HT29 = assay: cells; conditions: read-out: Aver IC50, HT29
Method: as §1, §2, §3, §4, §5, §6

MV411 = assay: cells; conditions: read-out: Aver IC50, MV411
Method: as §1, §2, §3, §4, §5, §6

A375 = assay: cells; conditions: read-out: Aver IC50, A375
Method: as §1, §2, §3, §4, §5, §6

U937 = assay: cells; conditions: read-out: Aver IC50, U937
Method: as §1, §2, §3, §4, §5, §6

RAMOS = assay: cells; conditions: read-out: Aver IC50, RAMOS
Method: as §1, §2, §3, §4, §5, §6

COLO678 = assay: cells; conditions: read-out: Aver IC50, COLO678
Method: as §1, §2, §3, §4, §5, §6

[1] = test system: lung fibroblast MRC5 cell line; assay: cells; conditions: read-out: Aver IC50, MRC5
Method: as §1, §2, §3, §4, §5, §6

A549 = assay: cells; conditions: read-out: Aver IC50, A549
Method: as §1, §2, §3, §4, §5, §6

JURKAT = assay: cells; conditions: read-out: Aver IC50, JURKAT
Method: as §1, §2, §3, §4, §5, §6

HCT116 = assay: cells; conditions: read-out: Aver IC50, HCT116
Method: as §1, §2, §3, §4, §5, §6

MCF7 = conditions: read-out: Aver IC50, MCF7; MCF7 (Breast Carcinoma); MTS, 72 hours, 37 °C, 5% CO2, 384-well; n>2 independent studies (in duplicate)
Method: as §1, §2, §3, §4, §5, §6

[2] = NCIH1048 (Lung - SCLC), MTS, 72 hours, 37 °C, 5% CO2, 384-well, n>2 independent studies (in duplicate)
[3] = OVCAR3 (Ovary - Adenocarcinoma), MTS, 72 hours, 37 °C, 5% CO2, 384-well, n>2 independent studies (in duplicate)
[4] = BXPC3 (Pancreatic - Adenocarcinoma), MTS, 72 hours, 37 °C, 5% CO2, 384-well, n>2 independent studies (in duplicate)
[5] = SNUC1 (Colon Carcinoma), MTS, 72 hours, 37 °C, 5% CO2, 384-well, n>2 independent studies (in duplicate)
[6] = THP1 (Acute Monocytic Leukemia), MTS, 72 hours, 37 °C, 5% CO2, 384-well, n>2 independent studies (in duplicate)
[7] = HL60 (Leukema - Promyelocytic), MTS, 72 hours, 37 °C, 5% CO2, 384-well, n>2 independent studies (in duplicate)
[8] = CALU6 (Lung - Adenocarcinoma), MTS, 72 hours, 37 °C, 5% CO2, 384-well, n>2 independent studies (in duplicate)
[9] = PANC1005 (Pancreatic - Adenocarcinoma), MTS, 72 hours, 37 °C, 5% CO2, 384-well, n>2 independent studies (in duplicate)
[10] = HT29 (Colon Carcinoma), MTS, 72 hours, 37 °C, 5% CO2, 384-well, n>2 independent studies (in duplicate)
[11] = MV411 (Acute Myeloid Leukemia), MTS, 72 hours, 37 °C, 5% CO2, 384-well, n>2 independent studies (in duplicate)
[12] = A375 (Malignant Melanoma), MTS, 72 hours, 37 °C, 5% CO2, 384-well, n>2 independent studies (in duplicate)
[13] = U937 (Pro-monocytic, Human Myeloid Leukemia), MTS, 72 hours, 37 °C, 5% CO2, 384-well, n>2 independent studies (in duplicate)
[14] = RAMOS (Burkitt's lymphoma), MTS, 72 hours, 37 °C, 5% CO2, 384-well, n>2 independent studies (in duplicate)
[15] = COLO678 (Colon Carcinoma), MTS, 72 hours, 37 °C, 5% CO2, 384-well, n>2 independent studies (in duplicate)
[16] = MRC5 (Lung Fibroblast, noncancerous), MTS, 72 hours, 37 °C, 5% CO2, 384-well, n>2 independent studies (in duplicate)
[17] = A549 (Lung - NSCLC), MTS, 72 hours, 37 °C, 5% CO2, 384-well, n>2 independent studies (in duplicate)
[18] = JURKAT (acute T-cell leukemia), MTS, 72 hours, 37 °C, 5% CO2, 384-well, n>2 independent studies (in duplicate)
[19] = HCT116 (Colon Carcinoma), MTS, 72 hours, 37 °C, 5% CO2, 384-well, n>2 independent studies (in duplicate)

Compound	IC50 (NCIH1048; [2])	IC50 (OVCAR3; [3])	IC50 (BXPC3; [4])	IC50 (SNUC1; [5])	IC50 (THP1; [6])	IC50 (HL60; [7])	IC50 (CALU6; [8])	IC50 (PANC1005; [9])	IC50 (HT29; [10])	IC50 (MV411; [11])	IC50 (A375; [12])	IC50 (U937; [13])	IC50 (RAMOS; [14])	IC50 (COLO678; [15])	IC50 [1, 16]	IC50 (A549; [17])	IC50 (JURKAT; [18])	IC50 (HCT116; [19])	also measured
CC[C@H](C)[C@@H](NC(C)=O)C(=O)N[C@@H](C(=O)N[C@H](C(=O)NC(C(=O)N[C@H](C)C(=O)N[C@@H](C(=O)N[C@H](C(=O)NC(C(=O)N[C@H](CN(C)C)C(C)C)=C(C)C)C(C)C)C(C)C)=C(C)C)C(C)(C)O)C(C)(C)O [Compound 24] (Ac-[d(aIle)][dVal(3-OH)][Val(3-OH)][ΔVal][dA][dV]V[ΔVal]-{NH((S)-1-NMe2-3-Me-but-2-yl)})	> 25 µM	> 25 µM	> 25 µM	24.9 µM	> 25 µM	> 25 µM	> 25 µM	> 25 µM	> 25 µM	> 25 µM	> 25 µM	> 25 µM	> 25 µM	> 25 µM	> 25 µM	> 25 µM	> 25 µM	> 25 µM	–
CCC(CC)=C(NC(=O)CNC(=O)C(NC(=O)[C@@H](NC(=O)C(C)(C)C(=O)[C@@H](C)CC(C)C)[C@](C)(O)CC)=C(C)C)C(=O)N[C@@H](C(=O)NCCN(C)C)C(C)C [Compound 26]	> 25 µM	> 25 µM	> 25 µM	> 25 µM	> 25 µM	> 25 µM	> 25 µM	> 25 µM	> 25 µM	> 25 µM	> 25 µM	> 25 µM	> 25 µM	> 25 µM	> 25 µM	> 25 µM	> 25 µM	> 25 µM	IC50 (MCF7): 6.34 µM
CC(=O)O[C@H]1C(=O)[C@@]2(C)[C@H]([C@H](OC(=O)c3ccccc3)[C@]3(O)C[C@H](OC(=O)[C@H](O)[C@@H](NC(=O)c4ccccc4)c4ccccc4)C(C)=C1C3(C)C)[C@]1(OC(C)=O)CO[C@@H]1C[C@@H]2O [Paclitaxel, reference compound]	–	–	–	–	–	–	–	–	–	–	–	–	–	–	–	–	–	–	IC50 (NCIH1048; Homo sapiens, NCI-H1048, 72 h): 0.0047 µM; IC50 (OVCAR3; Homo sapiens, OVCAR-3, 72 h): 0.003 µM; IC50 (BXPC3; Homo sapiens, BXPC-3, 72 h): 0.0055 µM; IC50 (SNUC1; Homo sapiens, SNU-C1, 72 h): 0.0265 µM; IC50 (THP1; Homo sapiens, THP-1, 72 h): 0.0068 µM; IC50 (HL60; Homo sapiens, HL-60, 72 h): 0.0097 µM; IC50 (CALU6; Homo sapiens, Calu-6, 72 h): 0.0036 µM; IC50 (PANC1005; Homo sapiens, Panc1005, 72 h): 0.0074 µM; IC50 (HT29; Homo sapiens, HT-29, 72 h): 0.006 µM; IC50 (MV411; Homo sapiens, MV4-11, 72 h): 0.0044 µM; IC50 (A375; Homo sapiens, A-375, 72 h): 0.0077 µM; IC50 (U937; Homo sapiens, U-937, 72 h): 0.003 µM; IC50 (RAMOS; Homo sapiens, Ramos, 72 h): 0.0059 µM; IC50 (COLO678; Homo sapiens, COLO-678, 72 h): 0.024 µM; IC50 ([1]; Homo sapiens, MRC5, 72 h): 0.0088 µM; IC50 (A549; Homo sapiens, A549, 72 h): 0.0046 µM; IC50 (JURKAT; Homo sapiens, Jurkat, 72 h): 0.0053 µM; IC50 (HCT116; Homo sapiens, HCT-116, 72 h): 0.0034 µM
